The source made the active and inactive calls. The rule behind the calls is not given here.

The target in the experiment is Ubiquitin-conjugating enzyme E2 N (Homo sapiens) (UniProt P61088). The experiment is described as follows: NMR detection of UBE2N ligand binding – biophysical, purified protein (AID 1552). The conditions noted are these: NMR binding to purified UBE2N.
Ubiquitin-conjugating enzyme E2 N (Homo sapiens), sequence (P61088 whole entry, looked up): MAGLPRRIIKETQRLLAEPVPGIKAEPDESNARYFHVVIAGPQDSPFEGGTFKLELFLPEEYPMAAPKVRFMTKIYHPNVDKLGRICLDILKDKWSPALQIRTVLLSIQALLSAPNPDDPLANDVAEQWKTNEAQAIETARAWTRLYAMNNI
For the compound `CC(=O)c1cc(C)ccc1O`, the Kd (as a rule, the constant that tells how readily two partners part at equilibrium) was > 4 mM (inactive).
As for `Nc1nnc(Cc2ccc(Cl)cc2)s1`, the figure is > 4 mM (inactive); as for `Nc1ccc2c(c1)N1CCN=C1S2`, > 4 mM (inactive).
As for `Cc1ccc(-c2nn3c(C)nnc3s2)cc1N`, the Kd was > 4 mM (inactive).
`CC(=O)Nc1sc(C)c(C)c1C(N)=O`: the Kd is > 4 mM (inactive).
As for `CNC(=O)c1cccc(NC(=S)NC)c1`, the figure is > 4 mM (inactive); as for `CNC(=O)C1CCCN(S(C)(=O)=O)C1` (stereo not drawn), > 4 mM (inactive).
Consider `NC(=O)CS(=O)(=O)c1ccc2ccccc2c1`, for which the Kd was > 4 mM (inactive).
Under `CN(C)c1ccc(NC(=O)CC(C(=O)O)N(C)C)cc1` (stereo not drawn) stands > 4 mM (inactive); under `CC(=O)O[C@@H]1CC2C(C)(C)CCC(=O)[C@]2(C)C2CC[C@@]3(C)[C@H](c4ccoc4)OC(=O)C4OC43[C@@]21C` (stereo partly drawn), > 4 mM (inactive).
As for `C[C@@H]1CCC2[C@](C)(CO)[C@@H](O)CC[C@]2(C)[C@@]12CC[C@@](CO)(CCO)O2` (stereo partly drawn), the figure is > 4 mM (inactive).
On to `CC1(C)C(=O)CC[C@@]2(C)C1C[C@@H](O)[C@@]1(C)C3=CC(=O)O[C@@H](c4ccoc4)[C@]3(C)CCC21` (stereo partly drawn), for which the Kd is > 4 mM (inactive).
For the compound `Nc1c(/C=C2\C=Nc3ccccc32)c(=O)nc2scnn12`, the Kd was > 4 mM (inactive).
For the compound `Cc1ccc(C(O)c2nccn2C)o1` (stereo not drawn), the Kd was > 4 mM (inactive).
With `C[C@H]1[C@H]2CCC3C4CC=C5C[C@@H](N(C)C)CC[C@]5(C)C4CC[C@@]32CN1C` (stereo partly drawn), the Kd was > 4 mM (inactive).
Take `OC[C@H]1O[C@@H](O[C@H]2[C@H](O)[C@@H](O)[C@@H](O)O[C@@H]2CO)[C@H](O)[C@@H](O)[C@@H]1O`: the Kd was > 4 mM (inactive).
Regarding `NCc1cccc2c1OCCO2`, the Kd is > 4 mM (inactive).
With `NN1C(=O)CSC1=Nc1ccccc1`, the Kd was > 4 mM (inactive).
Under `Cc1ccccc1NC(=O)C1CCC(=O)N1` (stereo not drawn) stands > 4 mM (inactive); under `Cc1cc(O)c(C)c(O)c1C(=O)O`, > 4 mM (inactive); under `CCOC(=O)c1c(C)[nH]c2ccc(O)cc12`, > 4 mM (inactive).
With `O=C(O)c1cccc2nsnc12`, the Kd was > 4 mM (inactive).
On to `Cc1nc2ccc(C(=O)O)cc2nc1C`, for which the Kd is > 4 mM (inactive).
Take `Cc1nn(-c2ccccc2C(=O)O)c(=O)c2ccccc12`: the Kd was > 4 mM (inactive).
For the compound `Cc1[nH]c(=O)[nH]c(=O)c1N1CCOCC1`, the Kd is > 4 mM (inactive).
Regarding `S=C(c1ccc(N2CCOCC2)cc1)N1CCCCC1`, the Kd was > 4 mM (inactive).
On to `Nn1c(CN2CCCCC2)nc2ccccc2c1=O`, for which the Kd is > 4 mM (inactive).
With `Cc1nc2ccccc2c(=O)n1/N=C/c1ccco1`, the Kd was > 4 mM (inactive).
Under `Cc1nnc(NCCCO)[nH]c1=O` stands > 4 mM (inactive).
With `NC(=O)c1cc(N)ccc1N1CCCCC1`, the Kd is > 4 mM (inactive).
With `O=C(Nc1ccon1)c1ccc2c(c1)OCO2`, the Kd is > 4 mM (inactive).
Under `CSc1nsc(SCc2cnc(C)nc2N)n1` stands > 4 mM (inactive).
Turning to `Cc1ccc(N2NC(=O)CC2=O)cc1C`, the Kd is > 4 mM (inactive).
Consider `Cc1nnc2sc(-c3csc4c3CCCC4)nn12`, for which the Kd was > 4 mM (inactive).
Take `O=C1NC(=S)N/C1=C\c1ccccc1F`: the Kd is > 4 mM (inactive).
For the compound `CC(=O)O[C@H]1CC[C@@]2(C)C(=CC(=O)C3C4CCC(C(C)CCCC(C)C)[C@@]4(C)CCC32)C1` (stereo partly drawn), the Kd is > 4 mM (inactive).
On to `CC(C)c1ccc2c(c1O)CC[C@H]1C3=C(CC[C@]21C)C(=O)OC3`, for which the Kd is > 4 mM (inactive).
For the compound `CC(=O)Nc1cccc(-c2nc3ccccc3c(=O)o2)c1`, the Kd was > 4 mM (inactive).
Regarding `Cn1nc(-c2ccccc2)cc1N`, the Kd is > 4 mM (inactive).
For `c1ccc(SCc2nc(-c3ccccn3)no2)cc1`, the Kd was > 4 mM (inactive).
In the case of `c1ccc(CN2CCC3(CC2)Nc2ccccc2CO3)cc1`, the Kd was > 4 mM (inactive).
Take `COc1cc(O)cc(/C=C/c2ccccc2)c1`: the Kd is > 4 mM (inactive).
As to `NC1=NC(=O)C(Cc2cccc([N+](=O)[O-])c2)S1` (stereo not drawn), the Kd is > 4 mM (inactive).
As for `CCOCC(=O)N1CCc2ccccc21`, the figure is > 4 mM (inactive).
In the case of `O=C(O)CNc1ncnc2nc[nH]c12`, the Kd was > 4 mM (inactive).
As for `CN1CCC(N(C)Cc2cccnc2)CC1`, the figure is > 4 mM (inactive); as for `O=C(C1CCCCC1)N1CCN(c2ccccc2F)CC1`, > 4 mM (inactive).
For `COc1ccc(C2=CC(=O)C=CC2=O)cc1`, the Kd was > 4 mM (inactive).
As for `COc1ccc(C2NC(C(=O)O)CS2)cc1` (stereo not drawn), the Kd was > 4 mM (inactive).
In the case of `Cc1cc(O)cc(O)c1C(=O)O`, the Kd is > 4 mM (inactive).
With `CC1(C)C2CC[C@]3(C)C(C(=O)C=C4[C@H]5C[C@@](C)(C(=O)O)CC[C@]5(C)CC[C@]43C)[C@@]2(C)CC[C@@H]1O` (stereo partly drawn), the Kd was > 4 mM (inactive).
`CC(=O)c1cc(CN2C(=O)c3ccccc3C2=O)cs1`: the Kd is > 4 mM (inactive).
Consider `O=S(=O)(O)c1cc[n+]([O-])cc1`, for which the Kd is > 4 mM (inactive).
As to `CN1C2CCC1CC(OC(=O)C(CO)c1ccccc1)C2` (stereo not drawn), the Kd was > 4 mM (inactive).
As for `Cc1ccc2c(c1)=C(c1sc(N)nc1O)C(=O)N=2`, the Kd is > 4 mM (inactive).
Take `Cc1ccc(Nc2nnns2)cc1C`: the Kd was > 4 mM (inactive).
As for `O=C(O)c1ccc(-n2cccc2)cc1`, the Kd is > 4 mM (inactive).
For the compound `O=C1CCC(=O)N1c1cccc([N+](=O)[O-])c1`, the Kd is > 4 mM (inactive).
Under `COc1cccc(OC)c1C(=O)N1CCOCC1` stands > 4 mM (inactive); under `CN1CCC(NC(=O)Cc2c(F)cccc2Cl)CC1`, > 4 mM (inactive).
On to `CC(=O)N/N=C(\C)c1cccc(N)c1`, for which the Kd is > 4 mM (inactive).
Under `COc1ccc(-c2coc3c(OC)c(OC)cc(O)c3c2=O)cc1` stands > 4 mM (inactive).
For the compound `COc1ccc(/C=C2/NC(=S)NC2=O)cc1`, the Kd was > 4 mM (inactive).
`O=S(=O)(Cc1ccc(Cl)cc1)N1CCCC1`: the Kd was > 4 mM (inactive).
Regarding `CCOC(=O)c1snnc1-c1ccccc1`, the Kd is > 4 mM (inactive).
Take `Cc1ccc(C(=O)N2CCC(C(N)=O)CC2)cc1C`: the Kd is > 4 mM (inactive).
As for `O=C(O)CSc1nc2ccccc2c(=O)[nH]1`, the figure is > 4 mM (inactive); as for `O=C(O)C1CN2CCC1CC2` (stereo not drawn), > 4 mM (inactive); as for `Cn1ncc(SCc2ccco2)c(Cl)c1=O`, > 4 mM (inactive).
As for `NC1=C(c2ccccc2)C(=O)c2ccccc21`, the Kd is > 4 mM (inactive).
As for `OC12CC3CC(C1)C1(NCCS1)C(C3)C2` (stereo not drawn), the figure is > 4 mM (inactive); as for `Cc1ccccc1NC(=S)NCCO`, > 4 mM (inactive).
Take `CCOC(=O)c1c(C)nc2ccccn12`: the Kd was > 4 mM (inactive).
As for `NC(=O)C1(c2ccccc2)CCOCC1`, the figure is > 4 mM (inactive).
As to `CCP(=O)(CC)c1cccc(C)c1`, the Kd was > 4 mM (inactive).
As for `CC(CO)NC(=O)C1C=C2c3cccc4[nH]cc(c34)C[C@H]2N(C)C1` (stereo partly drawn), the figure is > 4 mM (inactive); as for `Cc1cc(-c2ccc(Cl)cc2)n2nc(N)nc2n1`, > 4 mM (inactive); as for `CCOc1cc(S(=O)(=O)N2CCOCC2)ccc1F`, > 4 mM (inactive).
Regarding `Cc1noc(C)c1CSc1nc2ccccc2[nH]1`, the Kd was > 4 mM (inactive).
Under `Cc1nc2c(=O)[nH]c3ccccc3c2o1` stands > 4 mM (inactive); under `CC(=O)Nc1ccccc1OCC(N)=O`, > 4 mM (inactive).
For the compound `CC1(C)Cc2c(C#N)c(N)n(-c3ccccc3)c(=O)c2CO1`, the Kd was > 4 mM (inactive).
`Cc1cc(C)n2nc(C(=O)Nc3cccnc3)nc2n1`: the Kd is > 4 mM (inactive).
Regarding `Cn1c(SCC(N)=O)nnc1-c1c[nH]c2ccccc12`, the Kd was > 4 mM (inactive).
On to `NC(=O)COc1ccccc1O`, for which the Kd was > 4 mM (inactive).
As for `O=C(O)C1CN(Cc2ccccc2)CCO1` (stereo not drawn), the Kd is > 4 mM (inactive).
For `Cn1ncc(NC(=O)Nc2ccc(F)cc2F)c1C(N)=O`, the Kd is > 4 mM (inactive).
Regarding `NS(=O)(=O)c1ccc(NC(=O)C2CC2)cc1`, the Kd is > 4 mM (inactive).
As to `C(=Nn1cnnc1)c1ccccc1`, the Kd was > 4 mM (inactive).
For `Cc1noc(C)c1C(=O)N1CCC(Cc2ccccc2)CC1`, the Kd is > 4 mM (inactive).
As for `O=C(/C=C/c1ccco1)NC1=NCCS1`, the figure is > 4 mM (inactive); as for `COc1cccc(-c2cc(=O)c3cc(OC)ccc3o2)c1`, > 4 mM (inactive); as for `CC(=O)Oc1c2c(c3c(c1CC=C(C)C)O[C@]14C(=C[C@@H]5CC1C(C)(C)OC4(C/C=C(\C)C(=O)O)C5=O)C3=O)OC(C)(CCC=C(C)C)C=C2` (stereo partly drawn), > 4 mM (inactive).
As to `O=c1[nH]cc(COCc2ccccc2)c(=O)[nH]1`, the Kd is > 4 mM (inactive).
`COc1cc(O)c2c(c1)C(=O)c1cc(C)cc(O)c1C2=O`: the Kd is > 4 mM (inactive).
As for `COCC(=O)Nc1cc2c3c(c1)CCN3C(=O)CC2`, the Kd is > 4 mM (inactive).
Under `CC(=O)Nc1cc2c(cc1C(=O)C(C)C)OCCO2` stands > 4 mM (inactive).
For `Cc1cc(C(=O)N2CCC3(CC2)OCCO3)cs1`, the Kd was > 4 mM (inactive).
On to `Cc1cc(C(=O)Nc2cccnc2)no1`, for which the Kd is > 4 mM (inactive).
As for `COc1cc2ccc(=O)oc2c2ccoc12`, the figure is > 4 mM (inactive); as for `COc1cc2nc[nH]c(=O)c2cc1OC`, > 4 mM (inactive); as for `O=C1C=C(Nc2ccccc2O)c2ccccc2C1=O`, > 4 mM (inactive).
Under `O=S(=O)(Nc1ccc2c(c1)OCCO2)c1cccs1` stands > 4 mM (inactive).

(Values after PubChem BioAssay AID1552 (Sanford-Burnham Center for Chemical Genomics, 2009).)
